Test results from patent US20160279146A1, “METHODS AND PHARMACEUTICAL FORMULATIONS FOR TREATMENT OF SELECTIVE ESTROGEN-RECEPTOR MODULATOR-INDUCED ADVERSE DRUG REACTIONS” (priority 2013, published 2016).

Experiments:
healthy females [1] = experiment: Neuropsychological tests, proof of concept study: conclusions per neuropsychological domain; type: in vivo, human; conditions: for Effect regarding executive functioning: 1 subject (trail making B), an indication; for Effect regarding information processing speed: both subjects, multiple indications
Procedure: (§1) 2 healthy females performed a number of neuropsychological tests at baseline, after taking 40 mg/day of tamoxifen for 4 consecutive days, and after taking 40 mg/day of tamoxifen combined with 0.5 mg/day of sublingual testosterone for 4 consecutive days, to investigate any beneficial effects of sublingual testosterone in women taking a selective estrogen-receptor modulator (SERM).
In this proof of concept study, 2 healthy females performed a number of neuropsychological tests to investigate any beneficial effects of sublingual testosterone in women taking a SERM. The following neuropsychological domains were investigated (tasks are in brackets, see below for more information): • Information processing speed (Big/Little Circle, Choice Reaction Time, Match to Sample Visual Search, Trail making task A, 5-Choice Reaction Time) • Executive functioning (Intra-Extra Dimensional Set Shift, Trail making task B) • Reaction speed (Single Choice Reaction Time) • Working memory (Rapid Visual Information Processing) • Verbal memory (15-words task)
If tamoxifen in these women were to have detrimental effects on their cognitive functioning, a decrease in speed and/or accuracy on either of these tasks was expected.

healthy females [2] = experiment: 15 Words Test; type: in vivo, human; conditions: after 4 daily doses; for 15 words direct / 15 words recall: number of recalled words; for 15 words direct: total in 5 consecutive trials; for 15 words recognition: number of words
Procedure: as §1
The 15 Words Test (15WT) is developed to investigate episodic memory problems in patients with brain disorders. It is the Dutch version of the Auditory Verbal Learning Test (REF?). This test consists of 15 words, which have to be learned during five trials. After every trial the respondent is asked to recall as many words as possible. After a distraction period of 20 minutes, the respondent is, again asked to name the words they have learned before.

healthy females [3] = conditions: 2 healthy females; after 4 daily doses versus baseline
Source text: Intra-Extra Dimensional Set Shift (IED)
Two artificial dimensions are used in the test: • color-filled shapes • white lines
Simple stimuli are made up of just one of these dimensions, whereas compound stimuli are made up of both, namely white lines overlying colour-filled shapes. The participant starts by seeing two simple colour-filled shapes, and must learn which one is correct by touching it.
Feedback teaches the participant which stimulus is correct, and after six correct responses, the stimuli and/or rules are changed. These shifts are initially intra-dimensional (e.g. colour filled shapes remain the only relevant dimension), then later extra-dimensional (white lines become the only relevant dimension). Participants progress through the test by satisfying a set criterion of learning at each stage (six consecutive correct responses). If at any stage the participant fails to reach this criterion after 50 trials, the test terminates. […]

healthy females [4] = experiment: Rapid Visual Information Processing (RVP); type: in vivo, human; conditions: 2 healthy females; after 4 daily doses versus baseline
Source text: A white box appears in the centre of the computer screen, inside which digits, from 2 to 9, appear in a pseudo-random order, at the rate of 100 digits per minute.
The nine RVP outcome measures cover latency, probabilities and sensitivity.

Row | SMILES | Effect regarding verbal memory (healthy females [1]; 1 subject (15 words recall)) | Effect regarding executive functioning (healthy females [1]) | Effect regarding information processing speed (healthy females [1]) | 15 words direct (healthy females [2]; Subject 1) | 15 words recall (healthy females [2]; Subject 1) | 15 words recognition (healthy females [2]; Subject 1) | 15 words direct (healthy females [2]; Subject 2) | 15 words recall (healthy females [2]; Subject 2) | 15 words recognition (healthy females [2]; Subject 2) | IED task result (healthy females [3]) | RVP task result (healthy females [4])
1 | C[C@]12CC[C@H]3[C@@H](CCC4=CC(=O)CC[C@@]43C)[C@@H]1CC[C@@H]2O [testosterone] | positive effect | positive effects | positive effects | – | – | – | – | – | – | – | –
2 | CC/C(=C(\c1ccccc1)c1ccc(OCCN(C)C)cc1)c1ccccc1 [TAMOXIFEN, (Z)-2-[4-(1,2-diphenylbut-1-enyl)phenoxy]-N,N-dimethyl-ethanamine] | – | deteriorating effects | deteriorating effects | 51 | 6 | 27 | 43 | 9 | 28 | no effects | no effects
